Test results from US8026218B2, “Bifunctional analgesic compounds for opioid receptor agonists and neurokinin-1 receptor antagonists” (The University of Arizona, priority 2006, dated 2011).
pEC50, pIC50, pKi: −log10 of the molar value. Where two headings read alike, the source gives them in different places. Peptide text beside a SMILES is read from it.

Columns and labels:
μ opioid receptors (GPI) = experiment: Guinea pig isolated ileum (GPI) assay, opioid agonist; settings: for IC50: Table 39, read-out: GPI/LMMP opioid(mu) agonist (IC50; nM);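 as to all read-outs here: inhibition of electrically evoked contractions (0.1 Hz, 0.4 msec, supramaximal voltage) in organ baths at 37 °C, contraction height 3 min after each cumulative dose versus the 1 min before dosing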
δ opioid receptors (MVD) = target: T1, δ opioid receptors (MVD) (Mus musculus, UniProt P32300); experiment: Mouse isolated vas deferens (MVD) assay, opioid agonist
T1 construct: from tissue; host or cells: mouse (ICR) isolated vas deferens

[1] = target: T2, rat μ opioid receptors (rMOR) (Rattus norvegicus, UniProt P33535); experiment: biochemical; type: biochemical
T2 construct: expressed in transfected cells; host or cells: HN9.10 neuroblastoma cell line, pCDNA3, neomycin-selected clones

[2] = target: T3, Substance P receptors (guinea pig NK1) (Cavia porcellus, UniProt P30547); experiment: Guinea pig isolated ileum (GPI) assay with substance P stimulation in presence of 1 μM naloxone
T3 construct: from tissue; host or cells: guinea pig (Hartley) ileum LMMP, 1 μM naloxone present

[3] = target: T4, human δ opioid receptors (hDOR) (Homo sapiens, UniProt P41143); experiment: [35S]GTP-γ-S binding assay, hDOR; type: biochemical; settings: for pEC50: read-out: GTP hDOR EC50
T4 construct: expressed in transfected cells; host or cells: HN9.10 neuroblastoma cell line, pCDNA3, neomycin-selected clones

[4] = target: T5, human NK1 receptor (hNK1) (Homo sapiens, UniProt P25103); experiment: Radioligand competition binding, [3H]-Substance P, hNK1
T5 construct: expressed in transfected cells

rat NK1 (rNK1) receptor = target: T6, rat NK1 (rNK1) receptor (Rattus norvegicus, UniProt P14600); experiment: Radioligand competition binding, [3H]substance P, rNK1/CHO membranes; settings: Ki (nM) rNK1, Table 33
T6 construct: expressed in transfected cells; host or cells: CHO (rNK-1/CHO cell line from Dr. James Krause)

[5] = Table 35, read-out: GPI/LMMP μ-agonist IC50
[6] = Table 36, read-out: GPI μ-agonist IC50
[7] = Table 32, read-out: GTP rMOR EC50
[8] = Table 32, read-out: GTP rMOR EMax
[9] = GPI/LMMP SP antagonist Ke (nM), Table 35
[10] = Table 32, read-out: GTP hDOR EMax
[11] = Table 39, read-out: GTP binding rMOR Emax
[12] = Table 39, read-out: GTP binding hDOR Emax

T3 sequence (P30547 whole entry): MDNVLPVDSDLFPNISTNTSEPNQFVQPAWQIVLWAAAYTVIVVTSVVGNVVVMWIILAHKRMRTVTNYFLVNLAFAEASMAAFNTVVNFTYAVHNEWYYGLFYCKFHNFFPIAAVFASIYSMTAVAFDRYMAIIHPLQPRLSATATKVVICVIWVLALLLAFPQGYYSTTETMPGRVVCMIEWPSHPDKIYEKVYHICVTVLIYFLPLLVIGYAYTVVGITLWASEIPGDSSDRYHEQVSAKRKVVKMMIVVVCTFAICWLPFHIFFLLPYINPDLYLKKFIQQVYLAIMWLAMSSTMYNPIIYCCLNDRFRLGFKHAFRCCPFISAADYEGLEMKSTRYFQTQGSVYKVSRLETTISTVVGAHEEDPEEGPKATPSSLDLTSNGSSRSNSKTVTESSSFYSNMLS
T1 sequence (P32300 whole entry): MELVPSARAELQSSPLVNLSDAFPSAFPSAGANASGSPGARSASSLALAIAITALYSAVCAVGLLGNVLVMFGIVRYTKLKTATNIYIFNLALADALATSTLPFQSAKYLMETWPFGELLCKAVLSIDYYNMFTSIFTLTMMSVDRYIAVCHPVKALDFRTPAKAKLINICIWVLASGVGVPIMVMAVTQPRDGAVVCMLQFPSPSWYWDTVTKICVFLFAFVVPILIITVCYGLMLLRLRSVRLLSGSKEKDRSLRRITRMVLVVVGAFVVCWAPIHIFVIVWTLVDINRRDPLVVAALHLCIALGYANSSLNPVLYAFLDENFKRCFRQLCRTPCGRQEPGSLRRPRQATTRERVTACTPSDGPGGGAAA
T2 sequence (P33535 whole entry): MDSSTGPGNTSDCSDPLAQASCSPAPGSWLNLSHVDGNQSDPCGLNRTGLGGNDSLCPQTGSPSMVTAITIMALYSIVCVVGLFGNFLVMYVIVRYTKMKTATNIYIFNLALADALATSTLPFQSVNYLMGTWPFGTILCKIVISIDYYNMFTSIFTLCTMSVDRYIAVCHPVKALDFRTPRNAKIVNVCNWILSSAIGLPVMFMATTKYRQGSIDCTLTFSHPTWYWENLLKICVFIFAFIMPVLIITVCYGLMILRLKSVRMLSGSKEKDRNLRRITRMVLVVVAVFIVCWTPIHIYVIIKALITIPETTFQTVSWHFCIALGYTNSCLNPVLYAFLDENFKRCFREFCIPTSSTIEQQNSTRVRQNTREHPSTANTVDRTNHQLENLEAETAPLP
T5 sequence (P25103 whole entry): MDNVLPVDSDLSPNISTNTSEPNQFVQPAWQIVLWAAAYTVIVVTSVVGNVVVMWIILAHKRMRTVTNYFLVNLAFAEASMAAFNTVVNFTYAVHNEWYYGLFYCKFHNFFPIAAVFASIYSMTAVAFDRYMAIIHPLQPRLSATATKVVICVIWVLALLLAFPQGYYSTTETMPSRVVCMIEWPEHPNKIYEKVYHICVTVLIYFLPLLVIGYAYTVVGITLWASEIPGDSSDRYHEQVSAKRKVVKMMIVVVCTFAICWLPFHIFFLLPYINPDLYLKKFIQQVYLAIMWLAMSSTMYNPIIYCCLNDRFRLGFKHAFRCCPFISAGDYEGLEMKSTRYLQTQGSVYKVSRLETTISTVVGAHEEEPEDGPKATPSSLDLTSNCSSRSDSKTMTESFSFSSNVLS
T4 sequence (P41143 whole entry): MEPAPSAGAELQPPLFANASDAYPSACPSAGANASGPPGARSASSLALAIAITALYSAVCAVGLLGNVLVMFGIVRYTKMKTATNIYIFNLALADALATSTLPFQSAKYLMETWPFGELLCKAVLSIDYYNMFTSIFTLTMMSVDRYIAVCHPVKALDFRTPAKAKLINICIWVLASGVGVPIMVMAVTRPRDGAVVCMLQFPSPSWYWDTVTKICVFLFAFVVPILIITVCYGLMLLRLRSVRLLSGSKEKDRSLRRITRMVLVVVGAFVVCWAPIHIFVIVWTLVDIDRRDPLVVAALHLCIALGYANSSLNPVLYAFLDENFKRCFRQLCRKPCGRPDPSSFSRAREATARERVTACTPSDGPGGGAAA
T6 sequence (P14600 whole entry): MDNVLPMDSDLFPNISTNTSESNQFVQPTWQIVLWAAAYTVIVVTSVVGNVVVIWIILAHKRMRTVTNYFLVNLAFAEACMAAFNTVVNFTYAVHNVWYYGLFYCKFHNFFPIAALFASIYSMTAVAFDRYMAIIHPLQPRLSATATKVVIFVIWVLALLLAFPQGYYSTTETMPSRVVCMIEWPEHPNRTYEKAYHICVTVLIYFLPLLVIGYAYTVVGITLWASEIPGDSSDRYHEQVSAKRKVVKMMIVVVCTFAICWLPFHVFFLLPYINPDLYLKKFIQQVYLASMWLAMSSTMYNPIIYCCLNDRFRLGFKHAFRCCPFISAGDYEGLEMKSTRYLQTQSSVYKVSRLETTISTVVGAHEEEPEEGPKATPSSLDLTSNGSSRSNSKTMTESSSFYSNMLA

Structure (SMILES): C[C@@H](NC(=O)[C@@H](N)Cc1ccc(O)cc1)C(=O)NCC(=O)N[C@@H](Cc1ccccc1)C(=O)NCC(=O)N[C@@H](Cc1c[nH]c2ccccc12)C(=O)OCc1cc(C(F)(F)F)cc(C(F)(F)F)c1 [NP30] (HELM PEPTIDE1{Y.[dA].G.F.G.W.[FC(F)(F)c1cc(CO[*:1])cc(C(F)(F)F)c1]}$$$$V2.0; N-terminus assumed)
- pIC50 (μ opioid receptors (GPI); [5]): 7.59

Structure (SMILES): C[C@@H](NC(=O)[C@@H](N)Cc1ccc(O)cc1)C(=O)NCC(=O)N[C@@H](Cc1ccccc1)C(=O)NCCC(=O)N[C@@H](Cc1c[nH]c2ccccc12)C(=O)OCc1cc(C(F)(F)F)cc(C(F)(F)F)c1 [NP32] (HELM PEPTIDE1{Y.[dA].G.F.[bAla].W.[FC(F)(F)c1cc(CO[*:1])cc(C(F)(F)F)c1]}$$$$V2.0; N-terminus assumed)
- pIC50 (μ opioid receptors (GPI); [5]): 6.36

Structure (SMILES): C[C@@H](NC(=O)[C@@H](N)Cc1ccc(O)cc1)C(=O)NCC(=O)N[C@@H](Cc1ccccc1)C(=O)N[C@@H](Cc1c[nH]c2ccccc12)C(=O)OCc1cc(C(F)(F)F)cc(C(F)(F)F)c1 [NP36] (HELM PEPTIDE1{Y.[dA].G.F.W.[FC(F)(F)c1cc(CO[*:1])cc(C(F)(F)F)c1]}$$$$V2.0; N-terminus assumed)
- pIC50 (μ opioid receptors (GPI); [6]): 6.28

Structure (SMILES): CSCC[C@H](NC(=O)[C@H](Cc1ccccc1)NC(=O)CNC(=O)[C@@H](C)NC(=O)[C@@H](N)Cc1ccc(O)cc1)C(=O)N[C@@H](Cc1c[nH]c2ccccc12)C(=O)OCc1cc(C(F)(F)F)cc(C(F)(F)F)c1 [NP38] (HELM PEPTIDE1{Y.[dA].G.F.M.W.[FC(F)(F)c1cc(CO[*:1])cc(C(F)(F)F)c1]}$$$$V2.0; N-terminus assumed)
- pIC50 (δ opioid receptors (MVD)): 8.04
- pEC50 [1, 7]: 9.10
- Emax [1, 8]: 51%
- pIC50 (μ opioid receptors (GPI); [5]): 6.41
- Kb [2, 9]: 2 nM
- pEC50 ([3]; Table 32): 8.96
- Emax [3, 10]: 36%

Structure (SMILES): C[C@@H](NC(=O)[C@@H](N)Cc1ccc(O)cc1)C(=O)NCC(=O)N[C@@H](Cc1ccccc1)C(=O)N1CCC[C@H]1C(=O)N[C@@H](Cc1c[nH]c2ccccc12)C(=O)OCc1cc(C(F)(F)F)cc(C(F)(F)F)c1 [NP39] (HELM PEPTIDE1{Y.[dA].G.F.P.W.[FC(F)(F)c1cc(CO[*:1])cc(C(F)(F)F)c1]}$$$$V2.0; N-terminus assumed)
- pIC50 (μ opioid receptors (GPI); [5]): 6.59
- pKi [4]: 10.00

Structure (SMILES): C[C@@H](NC(=O)[C@H](Cc1ccccc1)NC(=O)CNC(=O)[C@@H](C)NC(=O)[C@@H](N)Cc1ccc(O)cc1)C(=O)N[C@@H](Cc1c[nH]c2ccccc12)C(=O)OCc1cc(C(F)(F)F)cc(C(F)(F)F)c1 [NP40] (HELM PEPTIDE1{Y.[dA].G.F.[dA].W.[FC(F)(F)c1cc(CO[*:1])cc(C(F)(F)F)c1]}$$$$V2.0; N-terminus assumed)
- pIC50 (δ opioid receptors (MVD)): 7.24
- pEC50 [1, 7]: 7.03
- Emax [1, 8]: 19%
- pIC50 (μ opioid receptors (GPI); [5]): 6.28
- Kb [2, 9]: 608 nM
- pEC50 ([3]; Table 32): 7.15
- Emax [3, 10]: 89%

Structure (SMILES): C[C@@H](NC(=O)[C@@H](N)Cc1ccc(O)cc1)C(=O)NCC(=O)N[C@@H](Cc1c[nH]c2ccccc12)C(=O)OCc1cc(C(F)(F)F)cc(C(F)(F)F)c1 [NP44] (HELM PEPTIDE1{Y.[dA].G.W.[FC(F)(F)c1cc(CO[*:1])cc(C(F)(F)F)c1]}$$$$V2.0; N-terminus assumed)
- pIC50 (δ opioid receptors (MVD)): 6.52
- pIC50 (μ opioid receptors (GPI); [6]): 6.07
- Ki (rat NK1 (rNK1) receptor): 3.4 nM
- Kb ([2]; GPI SP-antagonist Ke (nM), Table 36): 5 nM

Structure (SMILES): C[C@@H](NC(=O)[C@@H](N)Cc1ccc(O)cc1)C(=O)NCC(=O)N[C@@H](Cc1ccc(Cl)cc1)C(=O)NCC(=O)N[C@@H](Cc1c[nH]c2ccccc12)C(=O)OCc1cc(C(F)(F)F)cc(C(F)(F)F)c1 [NP46] (HELM PEPTIDE1{Y.[dA].G.[O=C([C@H](Cc1ccc(Cl)cc1)N[*:1])[*:2]].G.W.[FC(F)(F)c1cc(CO[*:1])cc(C(F)(F)F)c1]}$$$$V2.0; N-terminus assumed)
- pIC50 (μ opioid receptors (GPI); Table 37, read-out: GPI μ-agonist IC50): 6.91

Structure (SMILES): Cc1cc(O)cc(C)c1C[C@H](N)C(=O)N[C@H](C)C(=O)N[C@@H](Cc1c[nH]c2ccccc12)C(=O)OCc1cc(C(F)(F)F)cc(C(F)(F)F)c1 [NP48]
- pIC50 (δ opioid receptors (MVD)): 6.39
- GPI μ-agonist, % at 1 μM (μ opioid receptors (GPI); Table 36, at 1 μM): 20.4% at 1 μM

Structure (SMILES): CC(C)C[C@H](NC(=O)[C@@H]1CCCN1C(=O)[C@H](Cc1ccccc1)NC(=O)[C@H](Cc1ccccc1)NC(=O)CNC(=O)[C@@H](C)NC(=O)[C@@H](N)Cc1ccc(O)cc1)C(=O)N[C@@H](Cc1c[nH]c2ccccc12)C(=O)NCc1cc(C(F)(F)F)cc(C(F)(F)F)c1 [TY015] (HELM PEPTIDE1{Y.[dA].G.F.F.P.L.W.[FC(F)(F)c1cc(CN[*:1])cc(C(F)(F)F)c1]}$$$$V2.0; N-terminus assumed)
- pEC50 ([1]; Table 39, read-out: GTP binding rMOR EC50): 6.75
- Emax [1, 11]: 64.4%
- Emax [3, 12]: 142%

Structure (SMILES): CC(C)C[C@H](NC(=O)[C@@H]1CCCN1C(=O)[C@H](Cc1ccccc1)NC(=O)[C@H](Cc1ccccc1)NC(=O)CNC(=O)[C@@H](C)NC(=O)[C@@H](N)Cc1ccc(O)cc1)C(=O)N[C@@H](Cc1c[nH]c2ccccc12)C(=O)N(C)Cc1cc(C(F)(F)F)cc(C(F)(F)F)c1 [TY017] (HELM PEPTIDE1{Y.[dA].G.F.F.P.L.W.[CN(Cc1cc(C(F)(F)F)cc(C(F)(F)F)c1)[*:1]]}$$$$V2.0; N-terminus assumed)
- Emax [1, 11]: 62.4%
- Emax [3, 12]: 125%

Structure (SMILES): CSCC[C@H](NC(=O)[C@H](Cc1ccccc1)NC(=O)CNC(=O)[C@@H](C)NC(=O)[C@@H](N)Cc1ccc(O)cc1)C(=O)N[C@H](CC(C)C)C(=O)N[C@@H](CC(C)C)C(=O)N[C@@H](Cc1c[nH]c2ccccc12)C(=O)OCc1cc(C(F)(F)F)cc(C(F)(F)F)c1 [TY021] (HELM PEPTIDE1{Y.[dA].G.F.M.[dL].L.W.[FC(F)(F)c1cc(CO[*:1])cc(C(F)(F)F)c1]}$$$$V2.0)
- Emax [1, 11]: 51.4%
- Emax [3, 12]: 41.1%

Structure (SMILES): CSCC[C@H](NC(=O)[C@H](Cc1ccccc1)NC(=O)CNC(=O)[C@@H](C)NC(=O)[C@@H](N)Cc1ccc(O)cc1)C(=O)NC(C)(C)C(=O)N[C@@H](CC(C)C)C(=O)N[C@@H](Cc1c[nH]c2ccccc12)C(=O)OCc1cc(C(F)(F)F)cc(C(F)(F)F)c1 [TY022]
- Emax [1, 11]: 32%

Structure (SMILES): CSCC[C@H](NC(=O)[C@H](Cc1ccccc1)NC(=O)CNC(=O)[C@@H](C)NC(=O)[C@@H](N)Cc1ccc(O)cc1)C(=O)N1CCC[C@@H]1C(=O)N[C@@H](CC(C)C)C(=O)N[C@@H](Cc1c[nH]c2ccccc12)C(=O)OCc1cc(C(F)(F)F)cc(C(F)(F)F)c1 [TY024]
- Emax ([1]; read-out: GTP binding rMOR Emax): 28%
- Emax ([3]; read-out: GTP binding hDOR Emax): 21%

Structure (SMILES): CSCC[C@H](NC(=O)[C@H](Cc1ccccc1)NC(=O)CNC(=O)[C@@H](C)NC(=O)[C@@H](N)Cc1ccc(O)cc1)C(=O)N1CCC[C@H]1C(=O)N[C@@H](CC(C)C)C(=O)N[C@@H](Cc1c[nH]c2ccccc12)C(=O)N(C)Cc1ccccc1 [TY026]
- pIC50 (δ opioid receptors (MVD)): 8.10
- IC50 (μ opioid receptors (GPI)): 86.7 nM
- Emax [3, 12]: 93%
- pKi [4]: 12.00

Structure (SMILES): CSCC[C@H](NC(=O)[C@H](Cc1ccccc1)NC(=O)CNC(=O)[C@@H](C)NC(=O)[C@@H](N)Cc1ccc(O)cc1)C(=O)N1CCC[C@H]1C(=O)N[C@@H](CC(C)C)C(=O)N[C@@H](Cc1c[nH]c2ccccc12)C(=O)N(C)Cc1cc(C(F)(F)F)cc(C(F)(F)F)c1 [TY028]
- pIC50 (δ opioid receptors (MVD)): 7.95
- Emax [1, 11]: 52%
- IC50 (μ opioid receptors (GPI)): 971 nM
- Kb ([2]; GPI/LMMP SP antagonist (Ke; nM), Table 39): 4.6 nM
- Emax [3, 12]: 59%

Structure (SMILES): COc1cc(COC(=O)[C@H](Cc2c[nH]c3ccccc23)NC(=O)[C@H](CC(C)C)NC(=O)[C@@H]2CCCN2C(=O)[C@H](CCSC)NC(=O)[C@H](Cc2ccccc2)NC(=O)CNC(=O)[C@@H](C)NC(=O)[C@@H](N)Cc2ccc(O)cc2)cc(OC)c1 [TY030]
- Emax [1, 11]: 59%
- IC50 (μ opioid receptors (GPI)): 31 nM
- Emax [3, 12]: 61%

Structure (SMILES): CSCC[C@H](NC(=O)[C@H](Cc1ccccc1)NC(=O)CNC(=O)[C@@H](CS)NC(=O)[C@@H](N)Cc1ccc(O)cc1)C(=O)N1CCC[C@H]1C(=O)N[C@@H](CC(C)C)C(=O)N[C@@H](Cc1c[nH]c2ccccc12)C(=O)OCc1cc(C(F)(F)F)cc(C(F)(F)F)c1 [TY031] (HELM PEPTIDE1{Y.[dC].G.F.M.P.L.W.[FC(F)(F)c1cc(CO[*:1])cc(C(F)(F)F)c1]}$$$$V2.0; N-terminus assumed)
- pIC50 (δ opioid receptors (MVD)): 6.63

Structure (SMILES): CCCC[C@H](NC(=O)[C@H](Cc1ccccc1)NC(=O)CNC(=O)[C@@H](C)NC(=O)[C@@H](N)Cc1c(C)cc(O)cc1C)C(=O)N1CCC[C@H]1C(=O)N[C@@H](CC(C)C)C(=O)N[C@@H](Cc1c[nH]c2ccccc12)C(=O)NCc1cc(C(F)(F)F)cc(C(F)(F)F)c1 [TY050]
- Emax [1, 11]: 45%

Structure (SMILES): CSCC[C@H](N)C(=O)N1CCC[C@H]1C(=O)N[C@@H](CC(C)C)C(=O)N[C@@H](Cc1c[nH]c2ccccc12)C(=O)NCc1cc(C(F)(F)F)cc(C(F)(F)F)c1 [TY051] (HELM PEPTIDE1{M.P.L.W.[FC(F)(F)c1cc(CN[*:1])cc(C(F)(F)F)c1]}$$$$V2.0; N-terminus assumed)
- GTP binding rMOR EC50 ([1]; Table 39): no response

Structure (SMILES): CCCC[C@H](NC(=O)[C@H](Cc1ccccc1)NC(=O)CNC(=O)[C@@H](C)NC(=O)[C@@H](N)Cc1c(C)cc(O)cc1C)C(=O)N1CCC[C@H]1C(=O)N[C@@H](CC(C)C)C(=O)N[C@@H](Cc1c[nH]c2ccccc12)C(=O)NCc1cccc(C(F)(F)F)c1 [TY053]
- Emax [1, 11]: 20%
- pKi [4]: 8.98
